Test results taken from patent US8222414B2, “Indole compounds as an inhibitor of cellular necrosis” (LG Life Sciences Ltd., priority 2007, dated 2012).

The compounds below were run on primary hepatocytes isolated from rats (assay: Cell protective effects against doxorubicin in hepatocytes (WST-1 cell viability)). Conditions: Hepatocyte; primary rat hepatocytes pretreated with compound for 30 min, then doxorubicin; viability by WST-1 after 24-48 h.
Assay type: cell-based
Experimental: Various endogenous/exogenous attacks on the cells trigger the mechanisms of cell death which is broadly classified into two types, i.e. apoptosis or necrosis. Using these cell death mechanisms, in the present experimental example, primacy hepatocytes isolated from rats were treated with drugs which were clinically shown to result in serious side-effects of hepatocyte toxicity or various chemicals which derive cell death, and the compounds synthesized in the Examples were estimated for their hepatocyte protective effects, after 24-48 h. The substances used to derive hepatocyte death include CCl4, ActD, H2O2, doxorubicin, anti-Fas Ab/Actinomycin D, acetaminophen, EtOH, CdCl2, palmitate, stearate, cyclophosphamide, terfenadine, diclofenac, simvastatin, and adefovir. Primary hepatocytes were isolated using the method of Seglen P O (Experimental Cell Research 74 (1972) pp 450-454). Briefly, hepatocytes were isolated according to the two-step collagenase perfusion method, and dead cells were removed by low speed (500 rpm) centrifugation for 10 min using percoll gradient (Kreamer B L etc, In Vitro Cellular & Developmental Biology 22 (1986) pp 201-211). During this step, the viability of cells was maintained 90% or above. The cells were suspended in HepatoZYME media (Gibco BRL), and the number of cells was counted. 1.5×10^4 cells in 100 μl were placed into the collagen-coated 96-well plate (BD biocoat), and adhered on the bottom for 3-4 h.
In order to assess the hepatocyte protective effect, above adhered cells were pretreated with the Example compounds for 30 min. At this time, the concentration of the Example compounds were serially diluted by 2-fold or 3-fold over 5 steps starting from 30 uM, 10 uM or 1 uM depending on the experiments, and the final concentration of DMSO was adjusted to 0.2%. 30 min after the treatment by compounds, cells were treated by the substances deriving hepatocyte death or hepatotoxic drugs at the concentrations indicated in Table 1. After 24-48 h, the viability of cells was determined to estimate the hepatocyte protective effects. The viability of cells was determined using WST-1 (MK-400, […]) method by the absorbance at 440 nm. Hepatocyte protective effects of the Example compounds were represented by “EC50” which was calculated from measured values. “EC50” herein means the concentration of the compound at which 50% of maximum protective effect is observed in the experiment.

Structure (SMILES) | EC50 [nM]
Clc1cc(NC2CCOCC2)c2[nH]c(C3=N[C@@H](CCN4CCN(c5ccccn5)CC4)CS3)cc2c1 [Example 254, (5-Chloro-2-{(S)-4-[1-(pyridin-2-yl)piperazin-4-yl-ethyl]-4,5-dihydro-thiazol-2-yl}-1H-indol-7-yl)-(tetrahydropyran-4-yl)-amine] | 1000
O=C(O)C[C@@H]1CSC(c2cc3cc(Oc4cccnc4)cc(NC4CCOCC4)c3[nH]2)=N1 [Example 90, [(R)-2-(5-(pyridin-3-yl)oxy-7-(tetrahydropyran-4-yl)amino-1H-indol-2-yl)-4,5-dihydro-thiazol-4-yl]-acetic acid] | 7920
Cc1cc(NC2CCC(=O)CC2)c2[nH]c(C3=N[C@H](CC(=O)O)CS3)cc2c1 [Example 135, {(R)-2-[5-methyl-7-(4-oxo-cyclohexylamino)-1H-indol-2-yl]-4,5-dihydro-thiazol-4-yl}acetic acid] | 1260
CCOc1cc(NC2CCCC2)c2[nH]c(C3=N[C@H](CCC(=O)O)CS3)cc2c1 [Example 115, 3-[(R)-2-(5-ethoxy-7-cyclopentylamino-1H-indol-2-yl)-4,5-dihydro-thiazol-4-yl]-propionic acid] | < 1000
CC(=O)N1CCN(CC[C@H]2CSC(c3cc4cc(Cl)cc(NC5CCCC5)c4[nH]3)=N2)CC1 [Example 178, 1-(4-{2-[(S)-2-(7-cyclopentylamino-5-chloro-1H-indol-2-yl)-4,5-dihydro-thiazol-4-yl]-ethyl}-piperazin-1-yl)-ethanone] | 230
Fc1cc(NC2CCCC2)c2[nH]c(C3=N[C@H](CCN4CCOCC4)CS3)cc2c1 [Example 201, (5-Fluoro-2-{(R)-4-[(morpholin-4-yl)-ethyl]-4,5-dihydro-thiazol-2-yl}-1H-indol-7-yl)-cyclopentyl-amine] | 330
OC[C@@H]1CSC(c2cc3cccc(NC4CCOCC4)c3[nH]2)=N1 [Example 51, [(R)-2-(7-(tetrahydropyran-4-yl)amino-1H-indol-2-yl)-4,5-dihydro-thiazol-4-yl]-methanol] | 600
O=C1CCCN1CC[C@@H]1CSC(c2cc3cc(F)cc(NC4CCCC4)c3[nH]2)=N1 [Example 205, (5-Fluoro-2-{(R)-4-[(2-oxopyrrolidin-1-yl)-ethyl]-4,5-dihydro-thiazol-2-yl}-1H-indol-7-yl)-cyclopentyl-amine] | 340
O=C(O)C[C@@H]1CSC(c2cc3cc(Oc4cccnc4)cc(NC4CCCC4)c3[nH]2)=N1 [Example 88, [(R)-2-(5-(pyridin-3-yl)oxy-7-cyclopentylamino-1H-indol-2-yl)-4,5-dihydro-thiazol-4-yl]-acetic acid] | 1870
CCOc1cc(NC2CCCC2)c2[nH]c(C3=N[C@@H](CC(=O)O)CS3)cc2c1 [Example 47, [(S)-2-(5-ethoxy-7-cyclopentylamino-1H-indol-2-yl)-4,5-dihydro-thiazol-4-yl]-acetic acid] | 360
Cc1cc(NC2CCOCC2)c2[nH]c(C3=N[C@@H](CC(=O)O)CS3)cc2c1 [Example 25, [(S)-2-(5-methyl-7-(tetrahydropyran-4-yl)amino-1H-indol-2-yl)-4,5-dihydro-thiazol-4-yl]-acetic acid] | 760
FCc1nnc2n1CCN(CC[C@H]1CSC(c3cc4cc(Oc5ccccc5)cc(NC5CCCC5)c4[nH]3)=N1)C2 [Example 232, Cyclopentyl-(5-phenoxy-2-{(S)-4-[2-(3-fluoromethyl-5,6-dihydro-8H-[1,2,4]triazolo[4,3-a]pyrazin-7-yl)-ethyl]-4,5-dihydro-thiazol-2-yl}-1H-indol-7-yl)-amine] | 240
c1ccc(Oc2cc(NC3CCCC3)c3[nH]c(C4=N[C@@H](CCN5CCNCC5)CS4)cc3c2)cc1 [Example 230, (5-Phenoxy-2-{(S)-4-[(piperazin-1-yl)-ethyl]-4,5-dihydro-thiazol-2-yl}-1H-indol-7-yl)-cyclopentyl-amine] | > 320
CC(=O)Nc1cc(NC2CCCC2)c2[nH]c(C3=N[C@H](CO)CS3)cc2c1 [Example 38, [(R)-2-(5-acetylamino-7-cyclopentylamino-1H-indol-2-yl)-4,5-dihydro-thiazol-4-yl]-methanol] | 2000
Cc1cc(NC2CCOC2)c2[nH]c(C3=N[C@@H](CC(=O)O)CS3)cc2c1 (stereo partly drawn) [Example 20, [(S)-2-(5-methyl-7-(tetrahydrofuran-3-yl)amino-1H-indol-2-yl)-4,5-dihydro-thiazol-4-yl]-acetic acid] | 5770
OC[C@@H]1CSC(c2cc3cc(Oc4cccnc4)cc(NC4CCOCC4)c3[nH]2)=N1 [Example 62, [(R)-2-(5-(pyridin-3-yl)oxy-7-(tetrahydropyran-4-yl)amino-1H-indol-2-yl)-4,5-dihydro-thiazol-4-yl]-methanol] | 3770
O=C(O)CC[C@@H]1CSC(c2cc3cc(OC(F)(F)F)cc(NC4CCCC4)c3[nH]2)=N1 [Example 117, 3-[(R)-2-(5-trifluoromethoxy-7-cyclopentylamino-1H-indol-2-yl)-4,5-dihydro-thiazol-4-yl]-propionic acid] | < 500
O=C(O)C[C@@H]1CSC(c2cc3cc(Br)cc(NC4CCCC4)c3[nH]2)=N1 [Example 68, [(R)-2-(5-bromo-7-cyclopentylamino-1H-indol-2-yl)-4,5-dihydro-thiazol-4-yl]-acetic acid] | 490
CC(=O)N1CCC(Nc2cc(C)cc3cc(C4=N[C@@H](CC(=O)O)CS4)[nH]c23)C1 (stereo partly drawn) [Example 13, [(S)-2-(5-methyl-7-(1-acetylpyrrolidin-3-yl)amino-1H-indol-2-yl)-4,5-dihydro-thiazol-4-yl]-acetic acid] | 1130
O=C(O)C[C@H]1COC(c2cc3cc(Cl)cc(NC4CCCC4)c3[nH]2)=N1 [Example 121, [(S)-2-(5-chloro-7-cyclopentylamino-1H-indol-2-yl)-4,5-dihydro-oxazol-4-yl]-acetic acid] | 470
COC(=O)c1csc(-c2cc3cccc(NC4CCCC4)c3[nH]2)n1 [Example 134, [2-(7-Cyclopentylamino-1H-indol-2-yl)-thiazol-4-yl]-carboxylic acid methyl ester] | 510
Cc1cc(NC2CCOCC2)c2[nH]c(C3=N[C@@H](CCN4CCOCC4)CS3)cc2c1 [Example 184, (5-Methyl-2-{(S)-4-[(morpholin-4-yl)-ethyl]-4,5-dihydro-thiazol-2-yl}-1H-indol-7-yl)-(tetrahydro-pyran-4-yl)-amine] | 180
Clc1cc(NC2CCCC2)c2[nH]c(C3=N[C@H](CCCN4CCOCC4)CS3)cc2c1 [Example 222, (5-Chloro-2-{(R)-4-[(morpholin-4-yl)-propyl]-4,5-dihydro-thiazol-2-yl}-1H-indol-7-yl)-cyclopentyl-amine] | 180
NC[C@@H]1CSC(c2cc3cccc(NC4CCCC4)c3[nH]2)=N1 [Example 173, [2-((R)-4-aminomethyl-4,5-dihydro-thiazol-2-yl)-1H-indol-7-yl]-cyclopentyl-amine] | 1980
CCOc1cc(NC2CCCC2)c2[nH]c(C3=N[C@H](CC(=O)O)CS3)cc2c1 [Example 83, [(R)-2-(5-ethoxy-7-cyclopentylamino-1H-indol-2-yl)-4,5-dihydro-thiazol-4-yl]-acetic acid] | 600
Cc1cc(NC2CCN(C(=O)C(F)(F)F)CC2)c2[nH]c(C3=N[C@@H](CC(=O)O)CS3)cc2c1 [Example 9, [(S)-2-(5-methyl-7-(1-trifluoroacetylpiperidin-4-yl)amino-1H-indol-2-yl)-4,5-dihydro-thiazol-4-yl]-acetic acid] | > 2000
O=C1CN(CC[C@H]2CSC(c3cc4cccc(NC5CCOCC5)c4[nH]3)=N2)CCN1 [Example 182, (2-{(S)-4-[(2-oxopiperazin-4-yl)-ethyl]-4,5-dihydro-thiazol-2-yl}-1H-indol-7-yl)-(tetrahydro-pyran-4-yl)-amine] | 375
OC[C@@H]1CSC(c2cc3cccc(NC4CCOC4)c3[nH]2)=N1 (stereo partly drawn) [Example 52, [(R)-2-(7-(tetrahydrofuran-3-yl)amino-1H-indol-2-yl)-4,5-dihydro-thiazol-4-yl]-methanol] | 750
CS(=O)(=O)c1ccc(Oc2cc(NC3CCCC3)c3[nH]c(C4=N[C@H](CC(=O)O)CS4)cc3c2)cc1 [Example 94, [(R)-2-(5-(4-(methanesulfonyl)phenoxy)-7-cyclopentylamino-1H-indol-2-yl)-4,5-dihydro-thiazol-4-yl]-acetic acid] | 28100

Same assay, conditions: primary rat hepatocytes pretreated with compound for 30 min, then doxorubicin; viability by WST-1 after 24-48 h

Structure (SMILES) | EC50 [nM]
CN(c1cc(F)cc2cc(C3=N[C@H](CO)CS3)[nH]c12)C1CCCC1 [Example 45, {(R)-2-[7-(methyl-cyclopentyl)amino-5-fluoro-1H-indol-2-yl]-4,5-dihydro-1,3-thiazol-4-yl}-methanol] | 1320
O=C(CO)N1CCN(CC[C@H]2CSC(c3cc4cc(Oc5ccccc5)cc(NC5CCCC5)c4[nH]3)=N2)CC1 [Example 229] | 250
